Data: ChEMBL document CHEMBL1142815, “Influence of acid surrogates toward potency of VLA-4 antagonist” (Bioorg Med Chem Lett, 2005)

Columns and labels:
Integrin alpha-4/beta-1 [1] = target: T1, Integrin alpha-4/beta-1 (Homo sapiens, UniProt P05556+P13612); assay: Inhibition of VLA-4 receptor of Jurkat cells in BURJ assay; assay type: cell-based
Integrin alpha-4/beta-1 [2] = target: T1, Integrin alpha-4/beta-1; assay: Percentage binding to VLA-4 receptor of Jurkat cells; assay type: cell-based
[3] = Volume of distribution of compound in rat plasma upon intravenous administration of 5 mg/kg; assay type: ADME, organism-based; set-up: dose 5 mg/kg, route intravenous
[4] = Half-life in rat upon intravenous administration of 5 mg/kg; assay type: ADME, organism-based; set-up: dose 5 mg/kg, route intravenous; details: in vivo
[5] = Area under plasma concentration curve in rat upon intravenous administration of 5 mg/kg; assay type: ADME, organism-based; set-up: dose 5 mg/kg, route intravenous
[6] = Plasma clearance in rat upon intravenous administration of 5 mg/kg; assay type: ADME, organism-based; set-up: dose 5 mg/kg, route intravenous
[7] = Maximum concentration in rat plasma upon peroral administration of 5 mg/kg; assay type: ADME, organism-based; set-up: dose 5 mg/kg, route oral; details: po
[8] = Oral bioavailability in rat upon oral administration of 5 mg/kg; details: in vivo

T1 sequence (P05556 whole entry): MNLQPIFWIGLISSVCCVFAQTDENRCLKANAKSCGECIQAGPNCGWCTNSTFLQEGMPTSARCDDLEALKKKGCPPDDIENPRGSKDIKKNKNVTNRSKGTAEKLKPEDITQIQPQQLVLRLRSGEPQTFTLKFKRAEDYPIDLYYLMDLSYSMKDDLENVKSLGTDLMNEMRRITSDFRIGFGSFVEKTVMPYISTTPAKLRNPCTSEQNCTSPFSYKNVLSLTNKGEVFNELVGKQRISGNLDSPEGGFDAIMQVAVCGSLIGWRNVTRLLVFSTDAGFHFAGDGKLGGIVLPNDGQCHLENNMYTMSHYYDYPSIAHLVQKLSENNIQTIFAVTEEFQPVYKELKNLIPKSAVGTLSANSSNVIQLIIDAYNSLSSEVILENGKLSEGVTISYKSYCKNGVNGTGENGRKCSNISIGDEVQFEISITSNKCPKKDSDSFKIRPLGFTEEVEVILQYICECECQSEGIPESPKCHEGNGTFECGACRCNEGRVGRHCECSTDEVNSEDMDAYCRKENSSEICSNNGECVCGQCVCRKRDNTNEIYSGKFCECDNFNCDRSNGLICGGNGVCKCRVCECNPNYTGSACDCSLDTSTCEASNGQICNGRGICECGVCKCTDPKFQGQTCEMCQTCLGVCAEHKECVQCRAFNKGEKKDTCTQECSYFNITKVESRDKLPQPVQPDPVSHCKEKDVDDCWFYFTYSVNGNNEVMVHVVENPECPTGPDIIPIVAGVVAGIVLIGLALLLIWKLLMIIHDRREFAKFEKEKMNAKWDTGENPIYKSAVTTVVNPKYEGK
T1 sequence (P13612 whole entry): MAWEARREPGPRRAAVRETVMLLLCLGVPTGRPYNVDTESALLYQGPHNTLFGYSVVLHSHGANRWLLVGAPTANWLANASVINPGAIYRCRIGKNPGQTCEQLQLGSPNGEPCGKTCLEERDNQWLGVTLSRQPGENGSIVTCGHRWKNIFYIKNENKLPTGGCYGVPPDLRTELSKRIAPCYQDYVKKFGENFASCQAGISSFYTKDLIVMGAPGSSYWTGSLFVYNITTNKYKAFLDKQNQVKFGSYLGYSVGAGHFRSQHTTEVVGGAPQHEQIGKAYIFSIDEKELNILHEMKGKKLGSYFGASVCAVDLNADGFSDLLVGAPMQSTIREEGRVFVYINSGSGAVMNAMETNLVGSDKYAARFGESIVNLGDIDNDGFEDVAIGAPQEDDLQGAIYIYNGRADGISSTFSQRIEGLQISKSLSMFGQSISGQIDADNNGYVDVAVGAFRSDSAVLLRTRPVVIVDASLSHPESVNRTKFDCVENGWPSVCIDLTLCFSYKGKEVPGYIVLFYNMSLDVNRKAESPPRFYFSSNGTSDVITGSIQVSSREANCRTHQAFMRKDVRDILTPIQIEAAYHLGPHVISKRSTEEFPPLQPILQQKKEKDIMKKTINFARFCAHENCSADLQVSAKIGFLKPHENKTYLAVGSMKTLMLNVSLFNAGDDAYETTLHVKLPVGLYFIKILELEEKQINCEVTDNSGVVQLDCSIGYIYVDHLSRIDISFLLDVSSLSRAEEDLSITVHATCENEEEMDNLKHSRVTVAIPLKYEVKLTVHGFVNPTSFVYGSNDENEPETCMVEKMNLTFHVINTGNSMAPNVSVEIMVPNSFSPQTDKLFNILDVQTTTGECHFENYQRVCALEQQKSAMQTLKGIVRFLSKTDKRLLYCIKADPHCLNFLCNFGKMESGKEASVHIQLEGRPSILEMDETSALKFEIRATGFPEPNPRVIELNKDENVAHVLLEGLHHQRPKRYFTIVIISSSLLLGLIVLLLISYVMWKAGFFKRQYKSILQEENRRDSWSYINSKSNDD

**Q.** For `O=C(Nc1ccc(C[C@H](NC(=O)[C@@H]2CCCN2S(=O)(=O)c2cc(Cl)cc(Cl)c2)c2cc(O)[nH]n2)cc1)c1c(Cl)cncc1Cl`, which IC50 (Integrin alpha-4/beta-1 [1]) is on record?
**A.** The IC50 was 300 nM.

**Q.** What about the Percent binding to VLA-4 (Integrin alpha-4/beta-1 [2]) of the same compound?
**A.** Its Percent binding to VLA-4 is 6%.

**Q.** With `O=C(Nc1ccc(C[C@H](NC(=O)[C@@H]2CCCN2S(=O)(=O)c2cc(Cl)cc(Cl)c2)c2cc(=O)[nH]o2)cc1)c1c(Cl)cncc1Cl` as the compound, how does the Vd [3] read?
**A.** The Vd was 1.25 L/kg.

**Q.** And the half-life [4]?
**A.** The half-life was 2.85 h.

**Q.** And the IC50 (Integrin alpha-4/beta-1 [1])?
**A.** Its IC50 is 20 nM.

**Q.** What about the AUC [5] of the same compound?
**A.** The AUC was 3.51 µM·h.

**Q.** What about the clearance [6] of the same compound?
**A.** The clearance was 37.6 mL/min/kg.

**Q.** For `O=C(Nc1ccc(C[C@H](NC(=O)[C@@H]2CCCN2S(=O)(=O)c2cc(Cl)cc(Cl)c2)c2nnn[nH]2)cc1)c1c(Cl)cncc1Cl`, which IC50 (Integrin alpha-4/beta-1 [1]) is on record?
**A.** The IC50 was 60 nM.

**Q.** And the Percent binding to VLA-4 (Integrin alpha-4/beta-1 [2])?
**A.** The Percent binding to VLA-4 was 0%.

**Q.** What does the source list for `O=C(Nc1ccc(C[C@H](NC(=O)[C@@H]2CCCN2S(=O)(=O)c2cc(Cl)cc(Cl)c2)C(=O)O)cc1)c1c(Cl)cncc1Cl`?
**A.** Vd [3]: 0.57 L/kg; half-life [4]: 0.72 h; IC50 (Integrin alpha-4/beta-1 [1]): 0.03 nM; AUC [5]: 0.68 µM·h; clearance [6]: 38.2 mL/min/kg; Cmax [7]: 3.14 nM; Percent binding to VLA-4 (Integrin alpha-4/beta-1 [2]): 66%

**Q.** For `O=C(Nc1ccc(C[C@H](NC(=O)[C@@H]2CCCN2S(=O)(=O)c2cc(Cl)cc(Cl)c2)c2noc(O)n2)cc1)c1c(Cl)cncc1Cl`, which Vd [3] is on record?
**A.** Its Vd is 2.61 L/kg.

**Q.** And the half-life [4]?
**A.** The half-life was 2.78 h.

**Q.** And the IC50 (Integrin alpha-4/beta-1 [1])?
**A.** Its IC50 is 12 nM.

**Q.** What about the AUC [5] of the same compound?
**A.** Its AUC is 2.01 µM·h.

**Q.** What about the clearance [6] of the same compound?
**A.** The clearance was 60 mL/min/kg.

**Q.** What about the bioavailability [8] of the same compound?
**A.** Its bioavailability is 0.19%.

**Q.** What about the Cmax [7] of the same compound?
**A.** Its Cmax is 6.1 nM.

**Q.** And the Percent binding to VLA-4 (Integrin alpha-4/beta-1 [2])?
**A.** Its Percent binding to VLA-4 is 0%.

**Q.** For `CCOC(=O)CC(=O)[C@H](Cc1ccc(NC(=O)c2c(Cl)cncc2Cl)cc1)NC(=O)[C@@H]1CCCN1S(=O)(=O)c1cc(Cl)cc(Cl)c1`, which IC50 (Integrin alpha-4/beta-1 [1]) is on record?
**A.** The IC50 was 13 nM.

**Q.** And the Percent binding to VLA-4 (Integrin alpha-4/beta-1 [2])?
**A.** The Percent binding to VLA-4 was 10%.

**Q.** For `O=C(Nc1ccc(C[C@H](NC(=O)[C@@H]2CCCN2S(=O)(=O)c2cc(Cl)cc(Cl)c2)C(=O)NC(=O)C(F)(F)F)cc1)c1c(Cl)cncc1Cl`, which IC50 (Integrin alpha-4/beta-1 [1]) is on record?
**A.** The IC50 was 10 nM.

**Q.** And the Percent binding to VLA-4 (Integrin alpha-4/beta-1 [2])?
**A.** Its Percent binding to VLA-4 is 0%.

**Q.** Which Percent binding to VLA-4 (Integrin alpha-4/beta-1 [2]) does the source give for `O=C(Nc1ccc(C[C@H](NC(=O)[C@@H]2CCCN2S(=O)(=O)c2cc(Cl)cc(Cl)c2)c2cc(O)no2)cc1)c1c(Cl)cncc1Cl` here?
**A.** The Percent binding to VLA-4 was 8%.

**Q.** For `O=C(Nc1ccc(C[C@H](NC(=O)[C@@H]2CCCN2S(=O)(=O)c2cc(Cl)cc(Cl)c2)C(=O)NS(=O)(=O)C(F)(F)F)cc1)c1c(Cl)cncc1Cl`, which IC50 (Integrin alpha-4/beta-1 [1]) is on record?
**A.** Its IC50 is 11 nM.

**Q.** What about the Percent binding to VLA-4 (Integrin alpha-4/beta-1 [2]) of the same compound?
**A.** Its Percent binding to VLA-4 is 0%.

**Q.** For `COc1cccc(OC)c1-c1ccc(C[C@@H](Cn2oc(=O)[nH]c2=O)NC(=O)[C@@H]2CCCN2S(=O)(=O)c2cc(Cl)cc(Cl)c2)cc1`, which IC50 (Integrin alpha-4/beta-1 [1]) is on record?
**A.** The IC50 was 6000 nM.
